The record followed here is patent US12209081B2 (Katholieke Universiteit Leuven, priority 2020, dated 2025).

The target in this experiment is mouse TRPM3α2 (mTRPM3) ion channel (Mus musculus (Mouse), UniProt J9SQF3). The experiment can be described thus: TRPM3 ion channel driven Ca2+ uptake, Fluo-4 AM assay, mTRPM3alpha2 overexpressing flip-in HEK293 cells stimulated with pregnenolone sulfate. Format: cell-based. An outline of the steps:
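Flip-in HEK293 cells loaded with Fluo-4 AM were added to plates holding compound plus 50 μM pregnenolone sulfate in Ca2+-containing Krebs buffer. Fluorescence (ex 485/em 535 nm) read directly after cell addition; % inhibition relative to PS-stimulated vehicle and positive-control inhibitor.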

[1] abbreviates: PS (50 μM) stimulated, cpds. 667-751.
The mark [2] stands for this setting: PS (50 μM) stimulated, cpd 001-199.
Setting [3] is: PS (50 μM) stimulated, cpds. 500-599.
Where [4] appears, read: PS (50 μM) stimulated, cpds. 608-666.
Where [5] appears, read: PS (50 μM) stimulated, cpds. 400-499.

mouse TRPM3α2 (mTRPM3) ion channel, sequence (J9SQF3 other isoform, or with tags, fused parts or gaps): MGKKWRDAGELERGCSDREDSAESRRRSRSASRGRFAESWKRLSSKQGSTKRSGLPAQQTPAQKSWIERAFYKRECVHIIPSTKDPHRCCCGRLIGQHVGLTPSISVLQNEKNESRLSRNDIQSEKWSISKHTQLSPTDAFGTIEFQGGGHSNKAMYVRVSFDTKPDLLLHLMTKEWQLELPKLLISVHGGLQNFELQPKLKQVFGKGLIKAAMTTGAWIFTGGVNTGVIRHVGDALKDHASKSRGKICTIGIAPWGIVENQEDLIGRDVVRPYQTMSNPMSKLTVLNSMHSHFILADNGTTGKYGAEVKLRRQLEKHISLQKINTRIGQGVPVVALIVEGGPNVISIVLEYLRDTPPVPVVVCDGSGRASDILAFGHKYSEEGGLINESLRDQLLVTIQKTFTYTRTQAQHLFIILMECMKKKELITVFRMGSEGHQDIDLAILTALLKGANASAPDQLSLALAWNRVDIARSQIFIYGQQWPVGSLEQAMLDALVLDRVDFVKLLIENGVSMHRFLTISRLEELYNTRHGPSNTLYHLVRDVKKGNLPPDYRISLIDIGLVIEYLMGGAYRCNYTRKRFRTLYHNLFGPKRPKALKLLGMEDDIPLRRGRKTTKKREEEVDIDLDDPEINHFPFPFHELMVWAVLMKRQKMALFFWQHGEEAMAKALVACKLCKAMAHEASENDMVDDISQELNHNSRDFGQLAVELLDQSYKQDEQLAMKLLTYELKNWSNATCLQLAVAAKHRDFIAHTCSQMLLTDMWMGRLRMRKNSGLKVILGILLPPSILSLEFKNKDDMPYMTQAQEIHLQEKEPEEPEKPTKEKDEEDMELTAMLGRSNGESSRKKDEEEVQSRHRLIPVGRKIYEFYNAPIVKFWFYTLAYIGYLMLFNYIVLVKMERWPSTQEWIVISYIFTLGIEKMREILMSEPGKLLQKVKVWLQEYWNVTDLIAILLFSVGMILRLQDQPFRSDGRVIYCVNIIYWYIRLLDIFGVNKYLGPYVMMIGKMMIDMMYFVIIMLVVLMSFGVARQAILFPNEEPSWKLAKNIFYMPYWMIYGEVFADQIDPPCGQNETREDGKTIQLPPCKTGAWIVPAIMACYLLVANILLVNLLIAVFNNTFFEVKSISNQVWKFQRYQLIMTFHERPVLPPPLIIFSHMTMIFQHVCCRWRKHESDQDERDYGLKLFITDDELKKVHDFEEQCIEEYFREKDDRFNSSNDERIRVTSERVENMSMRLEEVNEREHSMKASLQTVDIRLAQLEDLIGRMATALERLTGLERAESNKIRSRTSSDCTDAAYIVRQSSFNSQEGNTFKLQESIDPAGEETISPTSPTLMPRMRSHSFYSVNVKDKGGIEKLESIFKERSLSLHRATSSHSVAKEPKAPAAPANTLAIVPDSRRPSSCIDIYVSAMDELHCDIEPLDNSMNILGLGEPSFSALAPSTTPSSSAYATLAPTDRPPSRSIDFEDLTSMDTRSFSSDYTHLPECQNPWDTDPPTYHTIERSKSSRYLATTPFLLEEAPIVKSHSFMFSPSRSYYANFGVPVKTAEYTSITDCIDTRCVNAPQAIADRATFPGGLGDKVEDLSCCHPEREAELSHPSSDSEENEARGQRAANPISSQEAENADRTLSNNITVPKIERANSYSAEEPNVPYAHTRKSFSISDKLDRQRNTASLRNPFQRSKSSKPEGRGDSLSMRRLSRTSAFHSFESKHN

Regarding `Cc1oc2ccc(OCc3cnccn3)cc2c1C(=O)N[C@@H](CO)C(N)=O` [compound 714, (S)-N-(1-Amino-3-hydroxy-1-oxopropan-2-yl)-2-methyl-5-(pyrazin-2-ylmethoxy)benzofuran-3-carboxamide], under setting [1], the IC50 (usually the concentration needed to halve the response being measured) is under 1 µM.
Under setting [2], `Cc1ncsc1COc1ccc2oc(C)c(C(=O)NC3(CN(C)C)CCC3)c2c1` [compound 108, N-(1-((dimethylamino)methyl)cyclobutyl)-2-methyl-5-((4-methylthiazol-5-yl)methoxy)benzofuran-3-carboxamide] showed an IC50 of under 1 µM.
For the setting “PS 50 μM, cpds 300-399”, `Cc1ncc(COc2ccc3oc(C)c(C(=O)NCC4(C#N)CC4)c3c2)s1` [compound 370, N-((1-cyanocyclopropyl)methyl)-2-methyl-5-((2-methylthiazol-5-yl)methoxy)benzofuran-3-carboxamide] returned an IC50 of under 1 µM.
Consider `Cc1oc2ccc(OCc3cccnc3C(F)(F)F)c(F)c2c1C(=O)NC1CCNCC1(F)F` (single isomer, unassigned) [cpd 112-En 1, N-(3,3-difluoropiperidin-4-yl)-4-fluoro-2-methyl-5-((2-(trifluoromethyl)pyridin-3-yl)methoxy) -benzofuran-3-carboxamide], for which, under setting [2], the IC50 was under 1 µM.
Regarding `Cc1oc2ccc(OCc3cccnc3)cc2c1C(=O)NC1CCNCC1(F)F` (single isomer, unassigned) [cpd 558-En 1], the IC50 under setting [3] was under 1 µM.
Turning to `Cc1ncsc1COc1ccc2oc(C)c(C(=O)N[C@@H](CS(C)(=O)=O)C(N)=O)c2c1` [compound 272, (R)-N-(1-amino-3-(methylsulfonyl)-1-oxopropan-2-yl)-2-methyl-5-((4-methylthiazol-5-yl)methoxy)benzofuran-3-carboxamide], the IC50 (PS 50 μM, cpds 200-299) is under 1 µM.
Under setting [2], `Cc1ncsc1COc1ccc2oc(C)c(C(=O)NC3COCC3O)c2c1` (single isomer, unassigned; dia 1) [162-Dia 1-En2] registered an IC50 of under 1 µM.
`Cc1oc2ccc(OCc3nccs3)cc2c1C(=O)NC1(CO)COC1` [compound 527, N-(3-(hydroxymethyl)oxetan-3-yl)-2-methyl-5-(thiazol-2-ylmethoxy)benzofuran-3-carboxamide] returned an IC50 under setting [3] of under 1 µM.
Still for that read-out and setting: the same measure for `Cc1oc2ccc(OCc3cccnc3C(F)(F)F)cc2c1C(=O)NC1CCNCC1(F)F` (single isomer, unassigned) [cpd 539-En 1]: 1 to 20 µM; for `Cc1ncsc1COc1ccc2oc(C)c(C(=O)NC3(CO)CC(F)(F)C3)c2c1` [compound 537, N-(3,3-difluoro-1-(hydroxymethyl)cyclobutyl)-2-methyl-5-((4-methylthiazol-5-yl)methoxy)benzofuran-3-carboxamide]: under 1 µM.
Regarding `Cc1oc2ccc(OCc3cn(C)nn3)cc2c1C(=O)NC1(CO)CCOCC1` [compound 604, N-(4-(hydroxymethyl)tetrahydro-2H-pyran-4-yl) -2-methyl-5-((1-methyl-1H-1,2,3-triazol-4-yl)methoxy)benzofuran-3-carboxamide], under setting [4], the IC50 was over 20 µM.
Compound `Cc1ncsc1COc1ccc2oc(C)c(C(=O)N[C@@H](CO)C(N)=O)c2c1` [compound 288, (S)-N-(1-amino-3-hydroxy-1-oxopropan-2-yl)-2-methyl-5-((4-methylthiazol-5-yl)methoxy)benzofuran-3-carboxamide] displayed an IC50 (PS 50 μM, cpds 200-299) of under 1 µM.
Same read-out and setting: next, `Cc1ncsc1COc1ccc2oc(C)c(C(N)=O)c2c1` [compound 232, 2-methyl-5-((4-methylthiazol-5-yl)methoxy)benzofuran-3-carboxamide]: under 1 µM.
As to `Cc1oc2ccc(OCc3cccnc3O)cc2c1C(=O)NC(C)(CO)CO` [compound 430, N-(1,3-dihydroxy-2-methylpropan-2-yl)-5-((2-hydroxypyridin-3-yl)methoxy)-2-methylbenzofuran-3-carboxamide], the IC50 under setting [5] is under 1 µM.
In the case of `Cc1oc2ccc(OCc3ccnn3CC(F)F)cc2c1C(=O)NC1(CO)CCOCC1` [compound 334, 5-((1-(2,2-difluoroethyl)-1H-pyrazol-5-yl)methoxy)-N-(4-(hydroxymethyl)tetrahydro-2H-pyran-4-yl)-2-methylbenzofuran-3-carboxamide], under “PS 50 μM, cpds 300-399”, the IC50 was under 1 µM.
As for `Cc1oc2ccc(OCc3cccnc3C(F)(F)F)cc2c1C(=O)NC1(CO)CCCOC1` (single isomer, unassigned) [cpd 531-En 1], the IC50 under setting [3] is under 1 µM.
On the same count and under the same terms, next, `Cc1oc2ccc(OCc3ccc(F)cn3)cc2c1C(=O)NC1CCNCC1(F)F` (single isomer, unassigned) [cpd 568-En 2]: 1 to 20 µM.
Under setting [1], `Cc1ncc(COc2ccc3oc(C)c(C(=O)NC(C)(CO)C(N)=O)c3c2)o1` (single isomer, unassigned) [cpd 722-En 2] yielded an IC50 of under 1 µM.
Turning to `Cc1oc2ccc(OCc3cnccc3Cl)cc2c1C(=O)NC1CCNCC1(F)F` (stereo not shown) [compound 068, 5-((4-chloropyridin-3-yl)methoxy)-N-(3,3-difluoropiperidin-4-yl)-2-methylbenzofuran-3-carboxamide], the IC50 under setting [2] was under 1 µM.
Take `Cc1ncsc1COc1ccc2oc(C)c(C(=O)NC3(COC(F)F)CC3)c2c1` [compound 400, N-(1-((difluoromethoxy)methyl)cyclopropyl)-2-methyl-5-((4-methylthiazol-5-yl)methoxy)benzofuran-3-carboxamide]: under setting [5], the IC50 was under 1 µM.
Still for that read-out and setting: next, `Cc1ncc(COc2ccc3oc(C)c(C(=O)NC(C)(CO)CO)c3c2)s1` [compound 425, N-(1,3-dihydroxy-2-methylpropan-2-yl)-2-methyl-5-((2-methylthiazol-5-yl)methoxy)benzofuran-3-carboxamide]: under 1 µM.
On to `Cc1oc2ccc(OCc3ncccc3F)cc2c1C(=O)NC1CCNCC1(F)F` (single isomer, unassigned) [cpd 566-En 1], for which the IC50 under setting [3] is under 1 µM.
With `Cc1oc2ccc(OCc3ccc(F)cn3)cc2c1C(=O)N[C@@H](CO)C(N)=O` [compound 741, (S)-N-(1-Amino-3-hydroxy-1-oxopropan-2-yl)-5-((5-fluoropyridin-2-yl)methoxy)-2-methylbenzofuran-3-carboxamide], the IC50 under setting [1] is under 1 µM.
Under setting [3], `Cc1cnc(COc2ccc3oc(C)c(C(=O)NC4CCNCC4(F)F)c3c2)cn1` (single isomer, unassigned) [cpd 554-En 1] came in with an IC50 of under 1 µM.
For `Cc1nc(C)c(COc2ccc3oc(C)c(C(=O)NC4(CO)CCOCC4)c3c2)s1` [compound 345, 5-((2,4-dimethylthiazol-5-yl)methoxy)-N-(4-(hydroxymethyl)tetrahydro-2H-pyran-4-yl)-2-methylbenzofuran-3-carboxamide], where the note is “PS 50 μM, cpds 300-399”, the IC50 is under 1 µM.
In turn, `Cc1oc2ccc(OCc3cccnc3C(F)(F)F)cc2c1C(=O)NC1(CO)CC1` [compound 200, N-(1-(hydroxymethyl)cyclopropyl)-2-methyl-5-((2-(trifluoromethyl)pyridin-3-yl)methoxy) -benzofuran-3-carboxamide] returned an IC50 (PS 50 μM, cpds 200-299) of under 1 µM.
The compound `Cc1oc2ccc(OCc3cccnc3O)cc2c1C(=O)NC1(CO)CCC1` [compound 416, N-(1-(hydroxymethyl)cyclobutyl)-5-((2-hydroxypyridin-3-yl)methoxy)-2-methylbenzofuran-3-carboxamide] gave an IC50 under setting [5] of under 1 µM.
`Cc1ncc(COc2ccc3oc(C)c(C(=O)NC4(CO)CCOCC4)c3c2)s1` [compound 613, N-(4-(hydroxymethyl)tetrahydro-2H-pyran-4-yl)-2-methyl-5-((2-methylthiazol-5-yl)methoxy)benzofuran-3-carboxamide] came in with an IC50 under setting [4] of under 1 µM.
In the case of `Cc1oc2ccc(OCc3nccn3C)cc2c1C(=O)NC1CCNCC1(F)F` (single isomer, unassigned) [cpd 205-En 1], under “PS 50 μM, cpds 200-299”, the IC50 is 1 to 20 µM.
Compound `Cc1ncsc1COc1ccc2oc(C)c(C(=O)NC3CN(C(=O)OCC(F)(F)F)CC3(F)F)c2c1` (single isomer, unassigned) [172-En 1, 2,2,2-trifluoroethyl 3,3-difluoro-4-(2-methyl-5-((4-methylthiazol-5-yl)methoxy)benzofuran-3-carboxamido)pyrrolidine-1-carboxylate] showed an IC50 under setting [2] of under 1 µM.
On the same count and under the same terms, next, `COc1ccncc1COc1ccc2oc(C)c(C(=O)NC3CCOC3)c2c1` (stereo not shown) [compound 040, 5-((4-methoxypyridin-3-yl)methoxy)-2-methyl-N-(tetrahydrofuran-3-yl)benzofuran-3-carboxamide]: over 20 µM.
Consider `Cc1ncsc1COc1ccc2oc(C)c(C(=O)NC3CCOCC3(F)F)c2c1` (single isomer, unassigned) [cpd 723-En 1], for which, under setting [1], the concentration for half-maximal inhibition (IC50) is under 1 µM.
In turn, `Cc1ncsc1COc1ccc2oc(C)c(C(=O)NCCS(C)(=O)=O)c2c1` [compound 323, 2-methyl-N-(2-(methylsulfonyl)ethyl)-5-((4-methylthiazol-5-yl)methoxy)benzofuran-3-carboxamide] had an IC50 (PS 50 μM, cpds 300-399) of under 1 µM.
`Cc1oc2ccc(OCc3nccn3C)cc2c1C(=O)NC(C)(CO)CO` [compound 422, N-(1,3-dihydroxy-2-methylpropan-2-yl)-2-methyl-5-((1-methyl-1H-imidazol-2-yl)methoxy)benzofuran-3-carboxamide] came in with an IC50 under setting [5] of under 1 µM.
Regarding `Cc1oc2ccc(OCc3nccn3C)cc2c1C(=O)NC1(CO)CCOCC1` [compound 204, N-(4-(hydroxymethyl)tetrahydro-2H-pyran-4-yl)-2-methyl-5-((1-methyl-1H-imidazol-2-yl) -methoxy)benzofuran-3-carboxamide], the half-inhibitory concentration (IC50) (PS 50 μM, cpds 200-299) is under 1 µM.
Under setting [1], `Cc1oc2ccc(OCc3ccccn3)cc2c1C(=O)N[C@H](C(N)=O)[C@@H](C)O` [compound 718, N-((2S,3R)-1-amino-3-hydroxy-1-oxobutan-2-yl)-2-methyl-5-(pyridin-2-ylmethoxy)benzofuran-3-carboxamide] showed an IC50 of under 1 µM.
As for `Cc1ncsc1COc1cc(F)c2oc(C)c(C(=O)NC3CCNCC3(F)F)c2c1` (single isomer, unassigned) [cpd 573-En 1], the IC50 under setting [3] was under 1 µM.
